# pIC50: −log10 of the molar value.
# Columns and labels:
# [1] = target: mTOR (human recombinant aa mTOR 1360-2549) (Homo sapiens (Human), UniProt P42345); assay: mTOR enzymatic test by TR-FRET (phosphorylation of GFP-4EBP1); format: biochemical
# Summary of the method: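 TR-FRET detection of GFP-4EBP1 phosphorylation by a terbium-labelled anti-phospho-Thr46 antibody. Kinase reaction ran 30 min at room temperature, was quenched with EDTA (10 mM final) plus Tb-antibody (2 nM final) and left 60 min. Emission at 520 and 490 nm after 340 nm excitation, reported as the 520/490 ratio.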
# PI3Kα (p110α/p85α) = PI3Kα (p110α/p85α) (Homo sapiens (Human), UniProt P42336); assay: PI3Kα enzymatic test by measuring the consumption of ATP; format: biochemical
# Summary of the method: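 p110α/p85α (1.7 μg/ml) with 50 μM PIP2 and 2 μM ATP in pH 7.5 Tris buffer with EGTA, MgCl2, Chaps, DTT; reaction 90 min. Remaining ATP measured by luciferin/luciferase luminescence; IC50 from threefold serial dilutions spanning at least 10 000-fold.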
# Akt-pS473 in U87MG cells = conditions: Homo sapiens, U-87 MG; for IC50: read-out: U87 Akt-pS473 % Inhibition or IC50, nM (IC50), U87MG cells
# U87MG tumour cells = assay: Test of in vitro proliferation of U87MG tumour cells; format: cell-based; conditions: Homo sapiens, U-87 MG, 72 h, U87MG cells, 72 hours; read-out: U87 Cell Proliferation IC50
# Procedure: Model 4: Test of in vitro Proliferation of U87MG Tumour Cells.
# The cell growth is determined with the reagent CellTiter 96 AQueous One Solution Cell Proliferation Assay from Promega (Cat. No. G3581).
# [2] = read-out: U87 Akt-pS473 % Inhibition
# Chain of PI3Kα (p110α/p85α) (P42336 whole entry): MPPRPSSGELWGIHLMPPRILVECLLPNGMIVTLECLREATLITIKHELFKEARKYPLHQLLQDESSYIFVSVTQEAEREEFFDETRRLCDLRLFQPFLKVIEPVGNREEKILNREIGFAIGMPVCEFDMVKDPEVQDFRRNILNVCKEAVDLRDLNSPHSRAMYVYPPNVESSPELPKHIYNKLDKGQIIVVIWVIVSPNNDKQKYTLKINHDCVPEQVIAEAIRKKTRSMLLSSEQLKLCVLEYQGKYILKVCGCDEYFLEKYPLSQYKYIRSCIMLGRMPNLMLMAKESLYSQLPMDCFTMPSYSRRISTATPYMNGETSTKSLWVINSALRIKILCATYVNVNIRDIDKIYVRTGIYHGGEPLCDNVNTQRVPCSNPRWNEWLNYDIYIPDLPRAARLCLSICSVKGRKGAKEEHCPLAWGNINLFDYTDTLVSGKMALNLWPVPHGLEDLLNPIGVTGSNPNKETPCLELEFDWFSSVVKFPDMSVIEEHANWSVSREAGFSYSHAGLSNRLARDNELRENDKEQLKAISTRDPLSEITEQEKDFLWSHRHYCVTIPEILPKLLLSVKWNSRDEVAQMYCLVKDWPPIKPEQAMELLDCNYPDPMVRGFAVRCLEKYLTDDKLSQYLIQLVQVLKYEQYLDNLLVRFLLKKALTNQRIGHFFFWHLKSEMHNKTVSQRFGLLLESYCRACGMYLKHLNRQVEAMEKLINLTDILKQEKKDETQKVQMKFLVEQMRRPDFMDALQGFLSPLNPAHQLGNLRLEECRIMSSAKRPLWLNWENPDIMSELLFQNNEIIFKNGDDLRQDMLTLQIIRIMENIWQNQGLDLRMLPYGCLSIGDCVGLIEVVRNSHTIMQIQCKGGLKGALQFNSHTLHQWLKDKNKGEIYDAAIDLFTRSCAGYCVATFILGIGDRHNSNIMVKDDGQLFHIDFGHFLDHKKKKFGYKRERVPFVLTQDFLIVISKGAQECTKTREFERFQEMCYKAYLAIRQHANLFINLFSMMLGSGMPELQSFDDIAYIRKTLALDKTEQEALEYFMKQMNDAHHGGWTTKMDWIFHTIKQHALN
# Chain of PI3Kα (p110α/p85α) (P27986 whole entry partner): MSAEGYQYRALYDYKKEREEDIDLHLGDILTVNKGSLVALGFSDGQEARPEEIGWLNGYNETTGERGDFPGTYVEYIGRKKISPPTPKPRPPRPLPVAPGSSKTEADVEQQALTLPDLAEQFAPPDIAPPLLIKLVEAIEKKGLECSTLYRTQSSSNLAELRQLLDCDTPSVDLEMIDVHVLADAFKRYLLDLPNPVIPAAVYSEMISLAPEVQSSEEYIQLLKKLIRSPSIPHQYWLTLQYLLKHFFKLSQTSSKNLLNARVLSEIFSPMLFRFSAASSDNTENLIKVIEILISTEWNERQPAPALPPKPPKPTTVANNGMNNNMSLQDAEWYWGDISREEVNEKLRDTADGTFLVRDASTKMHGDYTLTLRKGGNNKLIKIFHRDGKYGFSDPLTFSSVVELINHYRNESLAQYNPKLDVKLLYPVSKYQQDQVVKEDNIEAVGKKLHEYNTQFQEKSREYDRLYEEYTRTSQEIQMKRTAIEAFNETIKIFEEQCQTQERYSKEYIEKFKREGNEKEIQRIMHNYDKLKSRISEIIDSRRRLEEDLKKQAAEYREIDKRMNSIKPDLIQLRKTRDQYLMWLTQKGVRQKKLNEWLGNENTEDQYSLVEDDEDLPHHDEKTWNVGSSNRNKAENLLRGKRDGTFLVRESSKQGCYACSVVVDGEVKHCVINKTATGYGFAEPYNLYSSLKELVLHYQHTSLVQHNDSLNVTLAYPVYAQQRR
# Chain of mTOR (human recombinant aa mTOR 1360-2549) (P42345 1360-2549): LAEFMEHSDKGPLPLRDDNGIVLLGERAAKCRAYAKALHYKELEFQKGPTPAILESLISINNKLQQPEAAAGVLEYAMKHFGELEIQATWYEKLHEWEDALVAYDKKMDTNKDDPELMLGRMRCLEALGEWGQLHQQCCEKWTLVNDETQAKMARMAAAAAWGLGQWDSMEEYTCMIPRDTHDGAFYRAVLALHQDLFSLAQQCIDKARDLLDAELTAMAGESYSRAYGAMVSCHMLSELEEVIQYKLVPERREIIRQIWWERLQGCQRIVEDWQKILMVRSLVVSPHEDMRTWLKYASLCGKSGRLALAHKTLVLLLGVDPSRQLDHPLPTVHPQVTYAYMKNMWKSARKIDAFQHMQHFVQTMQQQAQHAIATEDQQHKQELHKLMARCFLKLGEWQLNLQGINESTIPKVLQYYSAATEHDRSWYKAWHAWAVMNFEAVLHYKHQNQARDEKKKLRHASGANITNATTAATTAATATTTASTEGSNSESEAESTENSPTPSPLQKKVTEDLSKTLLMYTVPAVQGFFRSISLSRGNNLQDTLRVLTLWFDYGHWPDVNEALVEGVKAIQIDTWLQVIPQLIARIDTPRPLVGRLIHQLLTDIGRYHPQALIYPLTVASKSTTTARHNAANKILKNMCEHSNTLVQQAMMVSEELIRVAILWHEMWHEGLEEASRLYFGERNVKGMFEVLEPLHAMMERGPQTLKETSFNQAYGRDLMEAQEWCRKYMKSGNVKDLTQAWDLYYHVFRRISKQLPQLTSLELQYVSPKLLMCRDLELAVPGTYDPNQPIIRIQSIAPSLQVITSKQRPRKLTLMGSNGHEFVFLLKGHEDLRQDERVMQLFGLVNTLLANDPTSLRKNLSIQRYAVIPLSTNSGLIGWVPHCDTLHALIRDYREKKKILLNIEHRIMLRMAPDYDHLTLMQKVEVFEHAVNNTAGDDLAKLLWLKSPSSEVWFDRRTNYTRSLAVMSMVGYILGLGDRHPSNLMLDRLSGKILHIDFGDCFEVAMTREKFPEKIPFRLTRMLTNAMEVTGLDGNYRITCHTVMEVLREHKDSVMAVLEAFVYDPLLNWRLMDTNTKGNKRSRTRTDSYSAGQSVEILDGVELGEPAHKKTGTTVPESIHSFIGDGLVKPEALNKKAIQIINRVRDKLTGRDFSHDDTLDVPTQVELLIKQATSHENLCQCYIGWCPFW
Structure (SMILES),pIC50 [1],PI3Ka IC50 (PI3Kα (p110α/p85α)) [nM],IC50 (Akt-pS473 in U87MG cells) [nM],pIC50 (U87MG tumour cells),inhibition at 1 µM (Akt-pS473 in U87MG cells; [2]) [%],inhibition at 3 µM (Akt-pS473 in U87MG cells; [2]) [%]
"CCN1CC(C)(C)Oc2nc(N3CC4CCC(C3)O4)nc(-c3ccc(NC(=O)Nc4ccc(CN5CCCCC5)cc4)cc3)c2C1=O [Example 203, 1-{4-[6-Ethyl-8,8-dimethyl-2-(8-oxa-3-azabicyclo[3.2.1]oct-3-yl)-5-oxo-5,6,7,8-tetrahydro-9-oxa-1,3,6-triazabenzocyclohepten-4-yl]phenyl}-3-(4-piperidin-1-ylmethylphenyl)urea]",7.02,9610,111,7.37,,
"CCN1CC(C)(C)Oc2nc(N3CCOC[C@@H]3C)nc(-c3ccc(NC(=O)Nc4cccc(OC(F)F)c4)cc3)c2C1=O [Example 204, 1-(3-Difluoromethoxyphenyl)-3-{4-[6-ethyl-8,8-dimethyl-2-((S)-3-methylmorpholin-4-yl)-5-oxo-5,6,7,8-tetrahydro-9-oxa-1,3,6-triazabenzocyclohepten-4-yl]phenyl}urea]",7.21,468,18,7.13,,
"CCN1CC(C)(C)Oc2nc(N3CC4CCC(C3)O4)nc(-c3ccc(NC(=O)Nc4ccc(N5CCN(C)CC5)cc4)cc3)c2C1=O [Example 205, 1-{4-[6-Ethyl-8,8-dimethyl-2-(8-oxa-3-azabicyclo[3.2.1]oct-3-yl)-5-oxo-5,6,7,8-tetrahydro-9-oxa-1,3,6-triazabenzocyclohepten-4-yl]phenyl}-3-[4-(4-methylpiperazin-1-yl)phenyl]urea]",7.20,3740,13,7.66,,
"CCN1CC(C)(C)Oc2nc(N3C[C@@H]4C[C@H]3CO4)nc(-c3ccc(NC(=O)NC)c(F)c3)c2C1=O [Example 206, 1-[4-((1S,4S)-6-Ethyl-8,8-dimethyl-2-2-oxa-5-azabicyclo[2.2.1]hept-5-yl-5-oxo-5,6,7,8-tetrahydro-9-oxa-1,3,6-triazabenzocyclohepten-4-yl)-2-fluorophenyl]-3-methylurea]",6.84,>10000,,5.87,87,
"CCN1CC(C)(C)Oc2nc(N3C4CCC3COC4)nc(-c3ccc(NC(=O)NC)c(F)c3)c2C1=O [Example 207, 1-{4-[6-Ethyl-8,8-dimethyl-2-(3-oxa-8-azabicyclo[3.2.1]oct-8-yl)-5-oxo-5,6,7,8-tetrahydro-9-oxa-1,3,6-triazabenzocyclohepten-4-yl]-2-fluorophenyl}-3-methylurea]",7.74,>10000,19,7.13,,
"CCN1CC(C)(C)Oc2nc(N3CCOC[C@@H]3C)nc(-c3ccc(NC(=O)Nc4cc(OC)c(F)cc4F)cc3)c2C1=O [Example 208, 1-(2,4-Difluoro-5-methoxyphenyl)-3-{4-[6-ethyl-8,8-dimethyl-2-((S)-3-methylmorpholin-4-yl)-5-oxo-5,6,7,8-tetrahydro-9-oxa-1,3,6-triazabenzocyclohepten-4-yl]phenyl}urea]",7.09,1240,26,6.74,,
"CCN1CC(C)(C)Oc2nc(N3CCOC[C@@H]3C)nc(-c3ccc(NC(=O)OCCO)c(F)c3)c2C1=O [Example 209, {4-[6-Ethyl-8,8-dimethyl-2-((S)-3-methylmorpholin-4-yl)-5-oxo-5,6,7,8-tetrahydro-9-oxa-1,3,6-triazabenzocyclohepten-4-yl]-2-fluorophenyl}carbamic acid 2-hydroxyethyl ester]",6.81,>10000,69,5.98,,
"CNC(=O)Nc1ccc(-c2nc(N3CC4CCC(C3)O4)nc3c2C(=O)N(CCOC)CC(C)(C)O3)cc1F [Example 210, 1-{2-Fluoro-4-[6-(2-methoxyethyl)-8,8-dimethyl-2-(8-oxa-3-azabicyclo[3.2.1]oct-3-yl)-5-oxo-5,6,7,8-tetrahydro-9-oxa-1,3,6-triazabenzocyclohepten-4-yl]phenyl}-3-methylurea]",7.39,>10000,174,6.20,,
"CCNC(=O)Nc1ccc(-c2nc(N3CC4CCC(C3)O4)nc3c2C(=O)N(CCOC)CC(C)(C)O3)cc1F [Example 211, 1-Ethyl-3-{2-fluoro-4-[6-(2-methoxyethyl)-8,8-dimethyl-2-(8-oxa-3-azabicyclo[3.2.1]oct-3-yl)-5-oxo-5,6,7,8-tetrahydro-9-oxa-1,3,6-triazabenzocyclohepten-4-yl]phenyl}urea]",7.06,>10000,270,6.05,,
"CCN1CC(C)(C)Oc2nc(N3CCOC[C@@H]3C)nc(-c3ccc(NC(=O)Nc4cccc(OC(F)F)c4)c(F)c3)c2C1=O [Example 212, 1-(3-Difluoromethoxyphenyl)-3-{4-[6-ethyl-8,8-dimethyl-2-((S)-3-methylmorpholin-4-yl)-5-oxo-5,6,7,8-tetrahydro-9-oxa-1,3,6-triazabenzocyclohepten-4-yl]-2-fluorophenyl}urea]",6.85,1540,8,7.15,,
"CCN1CC(C)(C)Oc2nc(N3CCOC[C@@H]3C)nc(-c3ccc(NC(=O)Nc4cc(OC)ccc4F)cc3)c2C1=O [Example 213, 1-{4-[6-Ethyl-8,8-dimethyl-2-((S)-3-methylmorpholin-4-yl)-5-oxo-5,6,7,8-tetrahydro-9-oxa-1,3,6-triazabenzocyclohepten-4-yl]phenyl}-3-(2-fluoro-5-methoxyphenyl)urea]",7.32,991,20,6.99,,
"CCN1CC(C)(C)Oc2nc(N3CCOC[C@@H]3C)nc(-c3ccc(NC(=O)OCC(C)(C)O)cc3)c2C1=O [Example 214, {4-[6-Ethyl-8,8-dimethyl-2-((S)-3-methylmorpholin-4-yl)-5-oxo-5,6,7,8-tetrahydro-9-oxa-1,3,6-triazabenzocyclohepten-4-yl]phenyl}carbamic acid 2-hydroxy-2-methylpropyl ester]",5.61,>10000,> 1000,< 5.00,,
"CCN1CC(C)(C)Oc2nc(N3CCOC[C@@H]3C)nc(-c3ccc(NC(=O)Nc4ccc(C(=O)N(C)CCN(C)C)cc4)cc3)c2C1=O [Example 215, N-(2-Dimethylamino-ethyl)-4-(3-{4-[6-ethyl-8,8-dimethyl-2-((S)-3-methylmorpholin-4-yl)-5-oxo-5,6,7,8-tetrahydro-9-oxa-1,3,6-triazabenzocyclohepten-4-yl]phenyl}ureido)-N-methylbenzamide]",7.32,37,33,7.49,,
"CCNC(=O)Nc1ccc(-c2nc(N3CC4CCC(C3)O4)nc3c2C(=O)N(CCOC)CC(C)(C)O3)cc1 [Example 217, 1-Ethyl-3-{4-[6-(2-methoxyethyl)-8,8-dimethyl-2-(8-oxa-3-azabicyclo[3.2.1]oct-3-yl)-5-oxo-5,6,7,8-tetrahydro-9-oxa-1,3,6-triazabenzocyclohepten-4-yl]phenyl}urea]",7.23,>10000,,5.75,,80
"CCN1CC(C)(C)Oc2nc(N3CCOC[C@@H]3C)nc(-c3ccc(NC(=O)Nc4ccc(N5CCN(C)CC5)cn4)cc3)c2C1=O [Example 218, 1-{4-[6-Ethyl-8,8-dimethyl-2-((S)-3-methylmorpholin-4-yl)-5-oxo-5,6,7,8-tetrahydro-9-oxa-1,3,6-triazabenzocyclohepten-4-yl]phenyl}-3-[5-(4-methylpiperazin-1-yl)pyridin-2-yl]urea]",7.24,1060,17,6.68,,
"CCN1CC(C)(C)Oc2nc(N3CCOC[C@@H]3C)nc(-c3ccc(NC(=O)Nc4ccc(C(=O)NCC(C)(C)O)cc4)cc3)c2C1=O [Example 219, 4-(3-{4-[6-Ethyl-8,8-dimethyl-2-((S)-3-methylmorpholin-4-yl)-5-oxo-5,6,7,8-tetrahydro-9-oxa-1,3,6-triazabenzocyclohepten-4-yl]phenyl}ureido)-N-(2-hydroxy-2-methylpropyl)benzamide]",7.42,98,28,6.36,,
"CCN1CC(C)(C)Oc2nc(N3CCOC[C@@H]3C)nc(-c3ccc(NC(=O)Nc4ccccn4)cc3)c2C1=O [Example 221, 1-{4-[6-Ethyl-8,8-dimethyl-2-((S)-3-methylmorpholin-4-yl)-5-oxo-5,6,7,8-tetrahydro-9-oxa-1,3,6-triazabenzocyclohepten-4-yl]phenyl}-3-pyridin-2-ylurea]",7.89,372,11,6.86,,
"CCN1CC(C)(C)Oc2nc(N3CC4CCC(C3)O4)nc(-c3ccc(NC(=O)OCCO)c(F)c3)c2C1=O [Example 222, {4-[6-Ethyl-8,8-dimethyl-2-(8-oxa-3-azabicyclo[3.2.1]oct-3-yl)-5-oxo-5,6,7,8-tetrahydro-9-oxa-1,3,6-triazabenzocyclohepten-4-yl]-2-fluorophenyl}carbamic acid 2-hydroxyethyl ester]",6.91,>10000,213,5.77,,
